Laboratory results taken from patent US20260364088A1, “TASL MIMICKING MOLECULES AND APPLICATIONS THEREOF” (CEMM - FORSCHUNGSZENTRUM FÜR MOLEKULARE MEDIZIN GMBH, priority 2022, published 2026).

Columns and labels:
[1] = molecular target: T1, SLC15A4 (Homo sapiens, UniProt Q8N697); experiment: Competition assay with V5-tagged N-terminal TASL fragments (V5 immunofluorescence); format: cell-based; details: TASL-V5 fragments of first 94 and 193 amino acids; 10 mM dTASL1, 24 h
T1 construct: transient TASL-V5 N-terminal fragments 1-94 and 1-193 (C-terminal V5) as partner
Description: For staining of fixed cells, 12 k cells/well were seeded in tissue culture-treated PhenoPlate 96-well plates (PerkinElmer) and incubated over-night. Cells were transfected with TASL-V5 fragments the next day and subsequently TASL-V5 expression was induced by addition of 1 μg/ml doxycycline and […] dTASL1 or an equivalent volume of DMSO respectively. Compound and doxycycline were added at the same time, to allow dTASL1 to occupy SLC15A4 binding sites in advance of TASL binding. Cells were fixed after 24 h of incubation for 10 min with 4% formaldehyde in PBS and permeabilized and blocked with 0.2% Triton X-100 (Sigma) and 5% FBS in PBS for 1 h. Cells were stained overnight at 4 °C with a mouse anti V5 primary antibody (Invitrogen) in blocking solution. Cells were washed 3 time in PBS and stained for 1.5 h with fluorescently labelled goat anti mouse Alexa-568 (Invitrogen) secondary antibody. […]
(§1) Encouraged by the fact that the chemical entity of the present invention was showing the desired behavior and specificity profile, it became important to better clarify the molecular basis of this uncommon mechanism of action, i.e interference with a highly specific protein interaction leading to degradation of a single complex component. The effect of dTASL1 on complex assembly was first monitored. […]

[2] = molecular target: ΔN-SLC15A4-GFP (Homo sapiens, UniProt Q8N697); experiment: ΔN-SLC15A4-GFP levels and localization in HEK293T cells; format: cell-based; details: 10 µM, 24 h
Description: Cells transfected with TASL-V5 plasmid were stained for V5-tag and detected with deep red Alexa Fluor 647 secondary antibody to allow for selection in the presence of an mCherry reporter. Cells were measured either immediately after staining or in the case of live cells immediately after harvesting and washing with PBS. Data were acquired on a BD FACSCalibur (BD Biosciences) and analyzed with FlowJo software (version 10).
For live cell imaging cells were plated in PhenoPlate 96-well plates or Ibidi m-Slide 8 (Ibidi) wells at 16 k/well and incubated over-night. Then compounds were added, if indicated, and cells were imaged after 24 h of incubation. Cells were stained with LysoTracker Deep Red L12492 (ThermoFisher) and Hoechst 34580 (ThermoFisher). […] Images were analyzed with Fiji-ImageJ.
as §1

ΔN-SLC15A4-GFP, sequence (Q8N697 whole entry, stated change not applied): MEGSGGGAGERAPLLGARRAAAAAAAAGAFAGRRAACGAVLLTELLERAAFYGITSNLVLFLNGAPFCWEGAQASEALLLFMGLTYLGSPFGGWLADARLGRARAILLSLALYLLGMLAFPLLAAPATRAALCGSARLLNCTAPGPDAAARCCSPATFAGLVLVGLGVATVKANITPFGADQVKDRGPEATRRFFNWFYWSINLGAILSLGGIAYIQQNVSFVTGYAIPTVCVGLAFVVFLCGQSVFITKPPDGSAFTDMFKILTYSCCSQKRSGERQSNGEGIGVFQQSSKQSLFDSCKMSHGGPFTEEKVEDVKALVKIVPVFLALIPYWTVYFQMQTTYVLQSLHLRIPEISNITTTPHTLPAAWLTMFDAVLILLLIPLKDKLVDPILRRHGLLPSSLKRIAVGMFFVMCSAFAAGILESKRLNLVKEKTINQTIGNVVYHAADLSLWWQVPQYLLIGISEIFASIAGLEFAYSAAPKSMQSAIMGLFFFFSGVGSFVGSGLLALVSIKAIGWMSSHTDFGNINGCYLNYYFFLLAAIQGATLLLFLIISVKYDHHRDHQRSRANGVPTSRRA
T1 sequence (Q8N697 whole entry, the tested form may be a part): as the sequence (Q8N697 whole entry, stated change not applied) above

## CCOc1ccc(-c2cc(C(=O)NCCCN3CCCCC3C)c3ccccc3n2)cc1 (centres unmarked) [dTASL1, 2-(4-ethoxyphenyl)-N-(3-(2-methylpiperidin-1-yl)propyl) quinoline-4-carboxamide]
[1]
  SLC15A4-localized V5 signal: reduce SLC15A4-localized V5 signal for both short TASL portions
[2]
  levels or localization of ΔN-SLC15A4-GFP: did not affect levels or localization of ΔN-SLC15A4-GFP
